Data as given in US20260355318A1, “MOLECULAR MACHINES FOR TREATMENT OF CANCER, FUNGAL INFECTIONS, OR BACTERIAL INFECTIONS” (priority 2022, published 2026).

How the values were obtained:
[1] = tested on: C. albicans plasma membrane; experiment: Plasma membrane fluidity, DPH fluorescence; format: cell-based, Candida albicans
Description: The effects of MMs on C. albicans membrane dynamics were evaluated using DPH fluorescence (Kim et al., 2009). […] AMB-treated cells were used as controls. Samples were fixed with 0.37% formaldehyde and labeled with 0.6 mM DPH, as previously described (Kim et al., 2009). […] DPH fluorescence of untreated samples minus background was defined as 100% and used to calculate changes in treated samples.

C. albicans [2] = experiment: MIC, visible-light-activated MMs and conventional antifungals, C. albicans; format: cell-based, Candida albicans (ATCC 18804)
Description: C. albicans cell suspensions were incubated with increasing concentrations of MMs and irradiated with 405-nm light at 292 mW cm^−2 for 5 min (87.6 J cm^−2). The minimum inhibitory concentration (MIC) was defined as the MM concentration resulting in no visible fungal growth after irradiation with 87.6 J cm^−2 of 405-nm light.
(§1) Cell suspensions for susceptibility testing (MMs and conventional antifungals) were prepared per the Clinical & Laboratory Standards Institute (CLSI) guidelines (CLSI, 2017; CLSI, 2008). Before testing, yeasts (C. albicans and S. cerevisiae) were sub-cultured in Sabouraud Dextrose Agar-Emmons Modification (SDAE) plates and grown for 24 h at 30 °C. Five independent colonies from 24-h-old plates were collected and diluted to ~10^4 colony forming units (CFU) per mL in sterile saline (CLSI, 2017). Molds (A. fumigatus and the dermatophytes T. rubrum and M. gypseum) were sub-cultured on SDAE medium and incubated for 7 days at 28 °C. Conidia were recovered by covering the plates with sterile distilled water and scraping the colonies. The suspensions were filtered (8-μm pore size) and diluted in saline to ~10^4 CFU mL^−1 (Santos and Hamdan, 2005).
(§2) After a 30-min incubation in the dark, cell suspensions were transferred to small, sterilized glass beakers, which were then placed in a water bath. Each sample was irradiated with 405-nm light at 292 mW cm^−2 for 5 min, corresponding to a light dose of 87.6 J cm^−2, determined using an S415C thermal power sensor (Thorlabs, Newton, MA, USA). During irradiation, the cell suspensions were agitated with a small metal stirrer. A thermocouple probe (model SC-TT-K-30-36-PP; Omega Engineering, Inc., Stanford, CT, USA) was used to monitor the temperature during irradiation. Irradiated cell suspensions were inoculated in 3-(N-morpholino) propanesulfonic acid (MOPS)-buffered Roswell Park Memorial Institute Medium (RPMI) 1640 (pH 7.0). Tubes were incubated at 30 ° C for 48 h (yeasts) and 28 ° C for 7 days (molds). The antifungal or MM concentration resulting in no visible growth was defined as the minimum inhibitory concentration (MIC) (CLSI, 2017; CLSI, 2008). Similarly prepared cell suspensions were used to determine the MIC of conventional antifungals.

C. albicans [3] = experiment: Time-kill assay, C. albicans; format: cell-based, Candida albicans
Description: (§3) For yeasts, five independent colonies were collected from 24-h SDAE plates, inoculated into yeast peptone with 2% dextrose (YPD), and grown for 24 h at 30 °C. Cells were then sub-cultured in fresh medium and grown for ~9 h. Afterward, the cells were centrifuged (5,000 ×g, 5 min), washed, and resuspended in phosphate-buffered saline (PBS) to ~10^6 CFU mL^−1. For A. fumigatus, conidia suspensions (~10^4 CFU mL^−1) were prepared in PBS as previously described.
(§4) Amphotericin B (AMB, 4×MIC) controls were prepared likewise, but light was omitted. Aliquots were collected in 1-min increments for up to 10 min, serially diluted in PBS, and plated on SDAE medium. Plates were incubated at 30 ° C for 48 h with confirmation after 72 h (yeasts) or at 28 ° C for 7 days with confirmation after 14 days (A. fumigatus), after which the CFU number was determined. The results were expressed as the logarithm of base 10 of the ratio between the CFU at each time point and the CFU at time 0. The detection limit of the method was ~1 log10 CFU mL^−1.

[4] = tested on: mature C. albicans biofilms; experiment: Biofilm viability (XTT assay); format: cell-based, Candida albicans; conditions: 2×, 4×MIC, vs DMSO, MMs with 87.6 J cm^−2 405-nm light
Description: The antibiofilm activity of MMs was investigated using 96-well microtiter plates with flat-bottom wells as a closed static biofilm reactor. This setup is reliable, inexpensive, easy to use and obtain, and requires no additional equipment (Pierce et al., 2010). Two parameters were used to evaluate antibiofilm activity: biofilm biomass and biofilm viability. Biofilm biomass was determined using the crystal violet method (Martins et al, 2010), a simple, inexpensive, and readily accessible method for determining biofilm biomass. However, because crystal violet binds both live and dead cells as well as extracellular polymeric substances, it cannot be used alone to reliably assess antibiofilm activity. To overcome this limitation, the XTT assay was used to evaluate biofilm viability (Nett et al., 2011). […] The resulting formazan can be easily detected by measuring the absorbance at 490 nm, which is proportional to the number of living cells, providing a reliable quantitative measurement of metabolically active cells in biofilms (Taff et al., 2012). […]
Biofilm viability was determined using an XTT cell viability assay kit (Biotium, Hayward, CA, USA) per the manufacturer's instructions. […] Normalized absorbance values were obtained by subtracting the background from the signal.

A. fumigatus [5] = experiment: MIC, MMs and antifungals, A. fumigatus; format: cell-based, Aspergillus fumigatus (ATCC 1022); conditions: A. fumigatus, broth microdilution
Description: as §1
After a 30-min incubation in the dark, cell suspensions were transferred to small, sterilized glass beakers, which were then placed in a water bath. Each sample was irradiated with 405-nm light at 292 mW cm^−2 for 5 min, corresponding to a light dose of 87.6 J cm^−2, determined using an S415C thermal power sensor (Thorlabs, Newton, MA, USA). During irradiation, the cell suspensions were agitated with a small metal stirrer. […]

S. cerevisiae [6] = experiment: MIC, MMs and antifungals, S. cerevisiae; format: cell-based, Saccharomyces cerevisiae (ATCC 13007); conditions: broth microdilution
Description: as §1, §2

[7] = tested on: mature C. albicans biofilms; experiment: Biofilm biomass (crystal violet); format: cell-based, Candida albicans; conditions: 2×, 4×MIC, vs DMSO, MMs with 87.6 J cm^−2 405-nm light
Description: The antibiofilm activity of MMs was investigated using 96-well microtiter plates with flat-bottom wells as a closed static biofilm reactor. This setup is reliable, inexpensive, easy to use and obtain, and requires no additional equipment (Pierce et al., 2010). Two parameters were used to evaluate antibiofilm activity: biofilm biomass and biofilm viability. Biofilm biomass was determined using the crystal violet method (Martins et al, 2010), a simple, inexpensive, and readily accessible method for determining biofilm biomass. However, because crystal violet binds both live and dead cells as well as extracellular polymeric substances, it cannot be used alone to reliably assess antibiofilm activity. To overcome this limitation, the XTT assay was used to evaluate biofilm viability (Nett et al., 2011). This assay is based on the reduction of the tetrazolium salt XTT to formazan by dehydrogenases in the mitochondrial electron transport chain of living cells. The resulting formazan can be easily detected by measuring the absorbance at 490 nm, which is proportional to the number of living cells, providing a reliable quantitative measurement of metabolically active cells in biofilms (Taff et al., 2012). […]
Biofilm biomass was determined by the crystal violet method, as previously described (Martins et al., 2010). […]

S. cerevisiae [8] = experiment: Time-kill assay, S. cerevisiae; format: cell-based, Saccharomyces cerevisiae; conditions: 2×MIC, 405-nm light at 292 mW cm^−2
Description: as §3, §4

superoxide dismutase = experiment: Superoxide dismutase (SOD) activity; format: cell-based, Candida albicans; conditions: 0.5×MIC, p<0.05
Description: (§5) Superoxide dismutase (SOD) activity was determined using a Superoxide Dismutase Assay Kit (Caymanchem, MI, USA) per the distributor's instructions. Lipid peroxidation was determined using a TBARS assay kit (TCA method) (Caymanchem, MI, USA) per the distributor's instructions. SOD activity and MDA levels were normalized by protein content determined by the Pierce assay (Pierce™ BCA Protein Assay Kit, Thermo Fisher Scientific, MA, USA).

[9] = Estimated rotation rate after light activation; conditions: based on known motors with similar core skeletons
C. albicans [10] = experiment: Development of resistance / cross-resistance in C. albicans (serial passage, single-step); format: cell-based; conditions: Candida albicans, read-out: MIC of MM in antifungal-resistant C. albicans
Description: FIG. 3: Evaluation of the development of resistance to MMs in C. albicans. For the stepwise resistance assessment by serial passage (left), C. albicans cell suspensions were treated with increasing concentrations (0.3125-160 μM) of different MMs (8 mM stock in DMSO) and then irradiated with […] light (87.6 J cm^−2). The irradiated cell suspensions were then inoculated in MOPS-buffered RPMI 1640 (pH 7.0, Sigma, MO, USA), and the tubes were incubated at 30 ° C for 48 h. […] Cells able to grow at 0.5×MIC of each MM were collected by centrifugation (5,000×g, 5 min), resuspended and re-challenged with a range of MM concentrations and irradiated with 405 nm light (87.6 J cm^−2). The procedure was repeated for a total of 20 consecutive cycles. […] Irradiated cells were then inoculated in YPD and incubated at 30 °C. However, MM-resistant colonies could not be recovered even after 14 days of incubation. Created with Biorender.com.
A modified version of the broth microdilution serial passage method was used to assess the development of resistance to visible-light-activated MMs in C. albicans (Kapoor et al., 2019). C. albicans cell suspensions were prepared and irradiated as previously described for the determination of MM MIC. Cells were then inoculated into buffered RPMI 1640 and incubated at 30 ° C for 48 h. Cells able to grow at 0.5×MIC of MM were centrifuged (5,000×g, 5 min), resuspended, rechallenged with different MM concentrations, and irradiated with 405-nm light (87.6 J cm^−2). The procedure was repeated for 20 consecutive cycles. The antifungals AMB, CAS, and FLC were processed similarly, except that light was omitted, and used as controls.

A. fumigatus [11] = experiment: Time-kill assay, A. fumigatus; format: cell-based, Aspergillus fumigatus; conditions: 2×MIC, 405-nm light at 292 mW cm^−2
Description: as §3, §4

C. albicans [12] = experiment: Lipid peroxidation (TBARS, MDA); format: cell-based, Candida albicans; conditions: 2×MIC
Description: as §5

C. albicans [13] = experiment: Influence of BAPTA-AM on MM-induced killing and intracellular calcium; format: cell-based, Candida albicans; conditions: MM 1 2×MIC
Description: C. albicans cells were grown as described above and resuspended in HHBS (~10^6 CFU mL^−1). The cation chelator 1,2-bis(2-aminophenoxy) ethane-N,N,N′,N′-tetraacetic acid acetoxymethyl ester (BAPTA-AM) was then added (0.25-1 mM, final concentration) (Li et al., 2020). Unamended cells were used as controls. After a 30-min dark incubation at 30 ° C, the cells were centrifuged (5,000×g, 5 min), washed, and resuspended in HHBS. […] After 30 min, the cells were irradiated and processed as described for the time-kill experiments.

C[C@@H]1[C@H](O)[C@@H](C)/C=C/C=C/C=C/C=C/C=C/C=C/C=C/[C@H](O[C@@H]2O[C@H](C)[C@@H](O)[C@H](N)[C@@H]2O)C[C@@H]2O[C@](O)(C[C@@H](O)C[C@@H](O)[C@H](O)CC[C@@H](O)C[C@@H](O)CC(=O)O[C@H]1C)C[C@H](O)[C@H]2C(=O)O [Amphotericin B (AMB), Amphotericin B]
DPH fluorescence [1]: reduces DPH fluorescence
MIC of antifungal agent (C. albicans [2]; C. albicans, broth microdilution): 1 µg/mL
effect on fungal cell number (C. albicans [3]; time-kill, FIG. 1D / FIG. 2, AMB at 4×MIC): non-significant reduction in cell numbers
reduction of biofilm viability [4]: 20%
MIC of antifungal agent (A. fumigatus [5]): 2 µg/mL
MIC of antifungal agent (S. cerevisiae [6]): 0.5 µg/mL
reduction of biofilm biomass [7]: 6%

C[C@@H]1Cc2ccc3ccccc3c2/C1=C1\c2ccccc2Sc2cc(NCCN3CCNCC3)ccc21 (mixture of isomers) [MM 7, 9-(2-methyl-2,3-dihydro-1H-cyclopenta[a]naphthalen-1-ylidene)-N-(2-(piperazin-1-yl)ethyl)-9H-thioxanthen-3-amine]
time to population eradication (S. cerevisiae [8]): 5 min
MIC (C. albicans [2]; Candida albicans, read-out: MIC of MM): ≤ 5 µM
superoxide dismutase activity (superoxide dismutase): increased superoxide dismutase activity
time to reduce cell numbers to limit of detection (C. albicans [3]; C. albicans, 2×MIC, 405-nm light at 292 mW cm^−2): 9 min
estimated rotation rate after light activation [9]: 3 MHz
MIC (C. albicans [10]): 5 µM
time to reduce cell numbers to limit of detection (A. fumigatus [11]): 9 min
lipid peroxidation product levels (C. albicans [12]): increased levels of the lipid peroxidation product malonaldehyde

CC(=O)OCOC(=O)CN(CC(=O)OCOC(C)=O)c1ccccc1OCCOc1ccccc1N(CC(=O)OCOC(C)=O)CC(=O)OCOC(C)=O [BAPTA-AM, 1,2-bis(2-aminophenoxy) ethane-N,N,N′,N′-tetraacetic acid acetoxymethyl ester]
effect of calcium chelator on MM-induced cell death (C. albicans [13]): Mitigation of MM-induced cell death
